Structures are written as SMILES. Some results are limits rather than exact numbers.

Chain of Helios (Q9UKS7 whole entry): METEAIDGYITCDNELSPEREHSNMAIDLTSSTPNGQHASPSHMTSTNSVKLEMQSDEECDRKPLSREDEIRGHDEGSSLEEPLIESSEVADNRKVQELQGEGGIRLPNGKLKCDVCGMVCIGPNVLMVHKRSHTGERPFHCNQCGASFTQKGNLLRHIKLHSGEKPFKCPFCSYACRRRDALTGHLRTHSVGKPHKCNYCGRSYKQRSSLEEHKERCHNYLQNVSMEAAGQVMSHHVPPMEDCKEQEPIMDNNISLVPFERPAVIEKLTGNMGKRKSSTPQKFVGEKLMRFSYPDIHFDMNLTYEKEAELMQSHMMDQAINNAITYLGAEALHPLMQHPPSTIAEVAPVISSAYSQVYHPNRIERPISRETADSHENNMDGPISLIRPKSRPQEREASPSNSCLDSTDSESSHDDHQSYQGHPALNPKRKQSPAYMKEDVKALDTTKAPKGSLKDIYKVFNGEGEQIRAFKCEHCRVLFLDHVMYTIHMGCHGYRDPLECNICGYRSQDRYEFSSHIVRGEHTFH
Chain of Helios (Q96SW2 whole entry): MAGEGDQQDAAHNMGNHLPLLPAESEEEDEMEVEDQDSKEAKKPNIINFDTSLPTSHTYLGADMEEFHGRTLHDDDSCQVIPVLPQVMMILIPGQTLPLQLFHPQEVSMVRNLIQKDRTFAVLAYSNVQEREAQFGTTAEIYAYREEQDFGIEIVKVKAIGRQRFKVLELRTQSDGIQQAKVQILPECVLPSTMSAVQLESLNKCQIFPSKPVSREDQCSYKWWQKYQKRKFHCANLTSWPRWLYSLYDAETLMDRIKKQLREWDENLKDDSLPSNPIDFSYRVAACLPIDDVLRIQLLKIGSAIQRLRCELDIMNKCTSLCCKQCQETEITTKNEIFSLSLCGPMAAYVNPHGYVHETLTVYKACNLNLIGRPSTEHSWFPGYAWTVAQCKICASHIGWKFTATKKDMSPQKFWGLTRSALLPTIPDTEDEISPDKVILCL
Chain of Helios (Q16531 whole entry partner): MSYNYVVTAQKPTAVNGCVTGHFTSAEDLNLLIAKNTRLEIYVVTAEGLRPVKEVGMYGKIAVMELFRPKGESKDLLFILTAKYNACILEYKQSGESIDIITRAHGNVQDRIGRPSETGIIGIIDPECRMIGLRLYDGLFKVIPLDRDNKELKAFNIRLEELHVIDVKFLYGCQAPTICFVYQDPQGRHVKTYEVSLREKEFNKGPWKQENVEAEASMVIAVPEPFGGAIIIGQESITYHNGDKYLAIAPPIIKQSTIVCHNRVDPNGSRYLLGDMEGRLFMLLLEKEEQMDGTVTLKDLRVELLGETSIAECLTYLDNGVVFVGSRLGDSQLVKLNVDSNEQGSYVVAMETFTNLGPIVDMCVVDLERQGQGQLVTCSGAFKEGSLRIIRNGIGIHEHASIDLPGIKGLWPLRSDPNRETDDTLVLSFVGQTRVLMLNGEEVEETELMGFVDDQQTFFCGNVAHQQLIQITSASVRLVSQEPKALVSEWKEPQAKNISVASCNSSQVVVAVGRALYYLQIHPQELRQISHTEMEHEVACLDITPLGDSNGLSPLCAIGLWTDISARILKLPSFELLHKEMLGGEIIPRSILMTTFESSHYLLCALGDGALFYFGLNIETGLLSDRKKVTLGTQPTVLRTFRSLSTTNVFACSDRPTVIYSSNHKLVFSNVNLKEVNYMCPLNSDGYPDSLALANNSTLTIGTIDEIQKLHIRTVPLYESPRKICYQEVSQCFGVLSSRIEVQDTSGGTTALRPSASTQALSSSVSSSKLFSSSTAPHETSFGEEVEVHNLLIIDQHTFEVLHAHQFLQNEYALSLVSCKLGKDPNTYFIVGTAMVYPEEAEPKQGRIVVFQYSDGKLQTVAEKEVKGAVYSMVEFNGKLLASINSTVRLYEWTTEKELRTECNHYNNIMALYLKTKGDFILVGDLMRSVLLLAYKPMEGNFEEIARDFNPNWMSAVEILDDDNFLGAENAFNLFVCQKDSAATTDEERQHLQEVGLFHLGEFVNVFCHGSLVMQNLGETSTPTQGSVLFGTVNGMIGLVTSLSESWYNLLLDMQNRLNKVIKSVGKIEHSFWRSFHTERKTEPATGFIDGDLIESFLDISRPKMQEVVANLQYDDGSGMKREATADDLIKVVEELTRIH

This assay deals with Helios (Homo sapiens, UniProt Q96SW2+Q9UKS7). In words: Helios Human T Regulatory Cells Degradation Assay. It is filed as cell-based. Details: fluorescently labelled antibodies against Helios in 1× Permeabilization buffer; endogenous in cells; host or cells: cryopreserved human T regulatory cells. As to conditions: cryopreserved human T regulatory cells, incubated 20 hours, Helios-APC antibody staining, flow cytometry; read-out: hTreg Helios DC50. Here is the method:
Cryopreserved human T regulatory cells were thawed in RPMI+10% FBS+20 ng/mL IL-2. After being spun at 1200 rpm for 5 mins, the cells were resuspended in RPMI+10% FBS+20 ng/mL and rested at 37° C. with 5% CO2 for 3 hours. […] Cell cultures were incubated for 20 hours at 37° C. and 5% CO2. In order to facilitate analysis, cell cultures were spun down at 1200 rpm for 5 minutes and the supernatant was discarded using an EL406 plate washer. After washing three times with 70 μL PBS, cell pellets were resuspended in 50 μL of near IR viability staining solution (Life Technologies, Cat #L34975) and incubated for 30 minutes on ice protected from light. Cells were washed three times with 70 μL PBS+0.5% BSA using an EL406 plate washer. […] Subsequently, 30 μL of 1× Permeabilization buffer was added prior to centrifuging the cells and discarding the supernatant. Stained cells were resuspended in 30 μL of flow cytometry staining buffer (PBS+0.5% BSA) and analyzed using an Intellicyt Ique Plus flow cytometer.
For orientation: DC50 means the concentration at which degradation of the target reaches its halfway point. In the case of `CC1CC(O)CCN1Cc1ccnc(-c2ccc3c(c2)CN(C2CCC(=O)NC2=O)C3=O)c1F` (single isomer, unassigned) [Example 212, 3-(5-(3-fluoro-4-((4-hydroxy-2-methylpiperidin-1-yl)methyl)pyridin-2-yl)-1-oxoisoindolin-2-yl)piperidine-2,6-dione], the half-maximal degradation concentration (DC50) amounted to 653 nM.

In the case of `CC(C)(C)OC(=O)[C@@H]1C[C@@H](OC(C)(C)C)CN1Cc1ccnc(-c2ccc3c(c2)CN(C2CCC(=O)NC2=O)C3=O)c1F` (single isomer, unassigned) [Example 214], the 50% degradation concentration (DC50) was determined as 3.5 nM.

Consider `CC1(O)CC2CN(Cc3ccnc(-c4ccc5c(c4)CN(C4CCC(=O)NC4=O)C5=O)c3)CC2C1` (stereo in doubt) [Example 147, (3S)-3-(5-(4-((5-hydroxy-5-methylhexahydrocyclopenta[c]pyrrol-2(1H)-yl)methyl)pyridin-2-yl)-1-oxoisoindolin-2-yl)piperidine-2,6-dione], for which the half-maximal degradation concentration (DC50) is 11.5 nM.

As for `O=C1CCC(N2Cc3cc(-c4nccc(CN5CC6(CCC6)C5)c4F)ccc3C2=O)C(=O)N1` (stereo not shown) [Example 88, 3-(5-(4-((2-azaspiro[3.3]heptan-2-yl)methyl)-3-fluoropyridin-2-yl)-1-oxoisoindolin-2-yl)piperidine-2,6-dione], the DC50 stood at 3.4 nM.

In the case of `CC(C)(O)C1CN(Cc2ccnc(-c3ccc4c(c3)CN(C3CCC(=O)NC3=O)C4=O)c2F)C1` (stereo not shown) [Example 89, 3-(5-(3-fluoro-4-((3-(2-hydroxypropan-2-yl)azetidin-1-yl)methyl)pyridin-2-yl)-1-oxoisoindolin-2-yl)piperidine-2,6-dione], the DC50 worked out at 18.4 nM.

For the compound `C[C@H]1[C@H](O)CN1Cc1ccnc(-c2ccc3c(c2)CN(C2CCC(=O)NC2=O)C3=O)c1F` (stereo partly drawn) [Example 90, 3-(5-(3-fluoro-4-(((2S,3R)-3-hydroxy-2-methylazetidin-1-yl)methyl)pyridin-2-yl)-1-oxoisoindolin-2-yl)piperidine-2,6-dione], the DC50 came out at 454 nM.

On to `O=C1CCC(N2Cc3cc(-c4nccc(CN5CCC(O)(c6ccccc6)CC5)c4F)ccc3C2=O)C(=O)N1` (stereo not shown) [Example 91, 3-(5-(3-fluoro-4-((4-hydroxy-4-phenylpiperidin-1-yl)methyl)pyridin-2-yl)-1-oxoisoindolin-2-yl)piperidine-2,6-dione], for which the DC50 is no less than 10000 nM.

On to `CC(C)(O)C1CCN(Cc2cc(-c3ccc4c(c3)CN(C3CCC(=O)NC3=O)C4=O)ncc2F)CC1` (stereo not shown) [Example 92, 3-(5-(5-fluoro-4-((4-(2-hydroxypropan-2-yl)piperidin-1-yl)methyl)pyridin-2-yl)-1-oxoisoindolin-2-yl)piperidine-2,6-dione], for which the DC50 stood at 1.2 nM.

As for `O=C1CCC(N2Cc3cc(-c4cc(CN5CC6(CCC6)C5)c(F)cn4)ccc3C2=O)C(=O)N1` (stereo not shown) [Example 93, 3-(5-(4-((2-azaspiro[3.3]heptan-2-yl)methyl)-5-fluoropyridin-2-yl)-1-oxoisoindolin-2-yl) piperidine-2,6-dione], the DC50 was 1.7 nM.

As to `CC(C)(O)[C@H]1CCCN1Cc1ccnc(-c2ccc3c(c2)CN(C2CCC(=O)NC2=O)C3=O)c1Cl` (stereo partly drawn) [Example 96, 3-(5-(3-chloro-4-(((R)-2-(2-hydroxypropan-2-yl)pyrrolidin-1-yl)methyl)pyridin-2-yl)-1-oxoisoindolin-2-yl)piperidine-2,6-dione], the DC50 worked out at 6.6 nM.

In the case of `CC(C)(O)C1CN(Cc2ccnc(-c3ccc4c(c3)CN(C3CCC(=O)NC3=O)C4=O)c2Cl)C1` (stereo not shown) [Example 97, 3-(5-(3-chloro-4-((3-(2-hydroxypropan-2-yl)azetidin-1-yl)methyl)pyridin-2-yl)-1-oxoisoindolin-2-yl) piperidine-2,6-dione], the DC50 turned out to be 17.1 nM.

With `COCC1CCCN(Cc2ccnc(-c3ccc4c(c3)CN(C3CCC(=O)NC3=O)C4=O)c2)C1` (stereo not shown) [Example 99, 3-(5-(4-((3-(methoxymethyl)piperidin-1-yl)methyl)pyridin-2-yl)-1-oxoisoindolin-2-yl)piperidine-2,6-dione], the 50% degradation concentration (DC50) was 2 nM.

For `O=C1CCC(N2Cc3cc(-c4cc(CN5CCC6(CC5)COC6)ccn4)ccc3C2=O)C(=O)N1` (stereo not shown) [Example 100, 3-(5-(4-((2-oxa-7-azaspiro[3.5]nonan-7-yl)methyl)pyridin-2-yl)-1-oxoisoindolin-2-yl)piperidine-2,6-dione], the DC50 was found to be 3.2 nM.

In the case of `O=C1CCC(N2Cc3cc(-c4cc(CN5C[C@@H]6C(CO)[C@@H]6C5)ccn4)ccc3C2=O)C(=O)N1` (stereo partly drawn) [Example 101, 3-(5-(4-(((1R,5S,6r)-6-(hydroxymethyl)-3-azabicyclo[3.1.0]hexan-3-yl)methyl)pyridin-2-yl)-1-oxoisoindolin-2-yl)piperidine-2,6-dione], the DC50 was 4.2 nM.

`O=C1CCC(N2Cc3cc(-c4cc(CN5CC[C@@H](CO)C5)ccn4)ccc3C2=O)C(=O)N1` (stereo partly drawn) [Example 102, 3-(5-(4-(((R)-3-(hydroxymethyl)pyrrolidin-1-yl)methyl)pyridin-2-yl)-1-oxoisoindolin-2-yl)piperidine-2,6-dione]: the DC50 amounted to 8.1 nM.

`O=C1CCC(N2Cc3cc(-c4cc(CN5Cc6cnc(Cl)cc6C5)ccn4)ccc3C2=O)C(=O)N1` (stereo not shown) [Example 103, 3-(5-(4-((6-chloro-1,3-dihydro-2H-pyrrolo[3,4-c]pyridin-2-yl)methyl)pyridin-2-yl)-1-oxoisoindolin-2-yl)piperidine-2,6-dione]: the DC50 stood at 4110 nM.

For the compound `CC(C)(O)[C@H]1CCN(Cc2ccnc(-c3ccc4c(c3)CN(C3CCC(=O)NC3=O)C4=O)c2)C1` (stereo partly drawn) [Example 104, 3-(5-(4-(((S)-3-(2-hydroxypropan-2-yl)pyrrolidin-1-yl)methyl)pyridin-2-yl)-1-oxoisoindolin-2-yl)piperidine-2,6-dione], the DC50 is 4.2 nM.

As for `O=C1CCC(N2Cc3cc(-c4cc(CN5CC[C@H](CO)C5)ccn4)ccc3C2=O)C(=O)N1` (stereo partly drawn) [Example 105, 3-(5-(4-(((S)-3-(hydroxymethyl)pyrrolidin-1-yl)methyl)pyridin-2-yl)-1-oxoisoindolin-2-yl) piperidine-2,6-dione], the DC50 came to 0.4 nM.

For the compound `CC(C)(O)[C@@H]1CCN(Cc2ccnc(-c3ccc4c(c3)CN(C3CCC(=O)NC3=O)C4=O)c2)C1` (stereo partly drawn) [Example 106, 3-(5-(4-(((R)-3-(2-hydroxypropan-2-yl)pyrrolidin-1-yl)methyl)pyridin-2-yl)-1-oxoisoindolin-2-yl)piperidine-2,6-dione], the DC50 is 6 nM.

As for `CC(O)C1CCN(Cc2ccnc(-c3ccc4c(c3)CN(C3CCC(=O)NC3=O)C4=O)c2)C1` (stereo not shown) [Example 107, 3-(5-(4-((3-(1-hydroxyethyl)pyrrolidin-1-yl)methyl)pyridin-2-yl)-1-oxoisoindolin-2-yl)piperidine-2,6-dione], the DC50 is 5.8 nM.

Regarding `CC(O)C1CCN(Cc2ccnc(-c3ccc4c(c3)CN(C3CCC(=O)NC3=O)C4=O)c2)CC1` (stereo not shown) [Example 108, 3-(5-(4-((4-(1-hydroxyethyl)piperidin-1-yl)methyl)pyridin-2-yl)-1-oxoisoindolin-2-yl)piperidine-2,6-dione], the half-maximal degradation concentration (DC50) stood at 1.4 nM.

Turning to `O=C1CCC(N2Cc3cc(-c4nccc(CN5CC[C@H](CO)C5)c4F)ccc3C2=O)C(=O)N1` (stereo partly drawn) [Example 109, 3-(5-(3-fluoro-4-(((S)-3-(hydroxymethyl)pyrrolidin-1-yl)methyl)pyridin-2-yl)-1-oxoisoindolin-2-yl)piperidine-2,6-dione], the half-maximal degradation concentration (DC50) was found to be 21.3 nM.

On to `CC(C)(O)[C@H]1CCN(Cc2ccnc(-c3ccc4c(c3)CN(C3CCC(=O)NC3=O)C4=O)c2F)C1` (stereo partly drawn) [Example 110, 3-(5-(3-fluoro-4-(((S)-3-(2-hydroxypropan-2-yl)pyrrolidin-1-yl)methyl)pyridin-2-yl)-1-oxoisoindolin-2-yl)piperidine-2,6-dione], for which the DC50 was 9.8 nM.

`CC(C)(O)[C@@H]1CCN(Cc2ccnc(-c3ccc4c(c3)CN(C3CCC(=O)NC3=O)C4=O)c2F)C1` (stereo partly drawn) [Example 111, 3-(5-(3-fluoro-4-(((R)-3-(2-hydroxypropan-2-yl)pyrrolidin-1-yl)methyl)pyridin-2-yl)-1-oxoisoindolin-2-yl) piperidine-2,6-dione]: the DC50 stood at 10.4 nM.

Regarding `CC(O)C1CCN(Cc2ccnc(-c3ccc4c(c3)CN(C3CCC(=O)NC3=O)C4=O)c2F)C1` (stereo not shown) [Example 112, 3-(5-(3-fluoro-4-((3-(1-hydroxyethyl)pyrrolidin-1-yl)methyl)pyridin-2-yl)-1-oxoisoindolin-2-yl)piperidine-2,6-dione], the DC50 is 9.5 nM.

Turning to `CC(O)C1CCN(Cc2ccnc(-c3ccc4c(c3)CN(C3CCC(=O)NC3=O)C4=O)c2F)CC1` (stereo not shown) [Example 113, 3-(5-(3-fluoro-4-((4-(1-hydroxyethyl)piperidin-1-yl)methyl)pyridin-2-yl)-1-oxoisoindolin-2-yl) piperidine-2,6-dione], the DC50 was 13.9 nM.

As for `O=C1CCC(N2Cc3cc(-c4nccc(CN5CC[C@H](O)C5)c4F)ccc3C2=O)C(=O)N1` (stereo partly drawn) [Example 114, 3-(5-(3-fluoro-4-(((S)-3-hydroxypyrrolidin-1-yl)methyl)pyridin-2-yl)-1-oxoisoindolin-2-yl)piperidine-2,6-dione], the 50% degradation concentration (DC50) was 23.5 nM.

Consider `C[C@@H]1c2c(ccc(-c3cc(CN4CC[C@@H](CO)C4)ccn3)c2F)C(=O)N1[C@H]1CCC(=O)NC1=O` [Example 133, (S)-3-((R)-4-fluoro-5-(4-(((R)-3-(hydroxymethyl)pyrrolidin-1-yl)methyl)pyridin-2-yl)-3-methyl-1-oxoisoindolin-2-yl)piperidine-2,6-dione], for which the DC50 amounted to 23.1 nM.

For the origin of these results see patent US20250346574A1, “PYRIDINYL SUBSTITUTED OXOISOINDOLINE COMPOUNDS FOR THE TREATMENT OF CANCER” (Bristol-Myers Squibb Company, priority 2021, published 2025).
